Source: US20240307453A1, “METHODS FOR CONTROLLING BLEEDING IN A SUBJECT AFFLICTED WITH HERMANSKY PUDLAK SYNDROME USING PLATELET DERIVATIVE COMPOSITIONS” (Cellphire, Inc., priority 2023, published 2024)

Assays:
GpIIbIIa receptor = target: T1, GpIIbIIa receptor (Homo sapiens, UniProt P05106+P08514); test: Mixed aggregation of washed FPH with washed platelets with and without RGDS; assay type: cell-based; conditions: 1 mM RGDS
T1 construct: endogenous in cells; host or cells: FPH (freeze-dried human platelet derivatives); in A8 also washed platelets from healthy donors
Description: For one of the replicates of each, RGDS was added to achieve a 1 mM concentration. […] The mixture was prepared immediately prior to running on the PAP-8E Platelet Aggregometer. PAP-8E was turned on and samples were incubated with stirring for 10 minutes at 37° C. and HMTA was used as a control for collagen agonist used in aggregation. Stir bars were added to cuvettes and 225 μl of sample was added to cuvettes by reverse pipetting and inserted into channels. Cuvettes were then transferred from warming wells to the testing wells. Run was started for each channel with 10 seconds in between. 25 μl of collagen (Helena Biosciences, helenabiosciences.com) was added to appropriate cuvettes when the timer for the channel reached 8:00 minutes. HMTA was added in place of the agonist to the first channel as a control. After measurement was completed for collagen agonist, each sample was transferred to a microcentrifuge tube and AcT count was taken.

FXa = target: T2, FXa (Homo sapiens, UniProt P00742); test: FPH thrombin generation response to Factor X blocking by rivaroxaban; assay type: biochemical; conditions: dose dependent blocking of Factor X
T2 construct: tissue Octophrama (so in the source); host or cells: Octaplas plasma mixed with FPH
T2 sequence (P00742 235-488 limits assumed): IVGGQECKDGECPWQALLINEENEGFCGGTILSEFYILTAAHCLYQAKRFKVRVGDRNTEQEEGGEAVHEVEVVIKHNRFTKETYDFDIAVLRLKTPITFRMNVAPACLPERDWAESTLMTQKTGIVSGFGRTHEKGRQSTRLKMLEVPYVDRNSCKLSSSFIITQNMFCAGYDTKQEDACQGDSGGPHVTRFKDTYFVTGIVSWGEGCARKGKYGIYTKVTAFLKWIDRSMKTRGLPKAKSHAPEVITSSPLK
T2 sequence (P00742 41-179 limits assumed): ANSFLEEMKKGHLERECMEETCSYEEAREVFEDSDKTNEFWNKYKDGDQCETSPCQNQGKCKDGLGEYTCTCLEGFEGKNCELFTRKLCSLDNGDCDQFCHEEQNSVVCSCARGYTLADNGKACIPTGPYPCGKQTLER
Description: Rivaroxaban (Cayman Chemical, caymanchem.com) was diluted in TGA dilution buffer to 0 μg/ml, […], 350 ng/ml, and 70 ng/ml. 60 mM GPRP (BACHEM, bachem.com), thrombin (Sigma Aldrich, sigmaaldrich.com) and Octoplas (Octophrama, octopharma.com) were thawed according to manufacturer's guidelines. CLARIOstarPlus was used to perform TGA. A master mix of Octaplas, PRP reagent (Diagnostica Stago, Cat. No. 86196), and GPRP was prepared in a ratio of 68:15:5, respectively. Flu substrate and Fluo-buffer were combined according to manufacturer's guidelines to create FluCa (Diagnostica Stago, stago.com). Master mix and FluCa solution were placed in the 37° C. air incubator with agitation for 45±5 minutes. […] 10 μl of each sample was dispensed into selected wells of a 96-well plate (Corning, corning.com) by reverse pipetting. TGA dilution buffer for thrombin was used in the thrombin standard ladder. […] CLARIOstarPlus injectors 1 and 2 were primed with master mix and FluCa solution with 250 μl, then the injector was placed in the active position. The CLARIOstarPlus TGA program was loaded with parameters for TGA assay with injectors set to add 90 μl of master mix and 40 μl of FluCa solution to each well. Plate was inserted to be read.

washed platelets (WPS) = test: Mixed aggregation of washed FPH with washed platelets (WPS) with and without EDTA and agonists; assay type: cell-based, human; conditions: 5 mM EDTA
Description: This was repeated 5 times. […] In one of the duplicates, EDTA was added to achieve a 5 mM concentration. […] These samples were prepared immediately prior to running on the PAP-8E Platelet Aggregometer. The different agonist were prediluted in HMTA according: arachidonic acid (Helena Biosciences, Helena-biosciences.com) 1:10 in HMTA, TRAP-6 (Tocris, tocris.com) by adding 7.5 μl to 292.5 μl HMTA.
The PAP-8E Platelet Aggregometer was turned on and samples were incubated with stirring for 10 minutes at 37° C. for all mixed aggregation experiments. The samples with HMTA was used as a control for agonists used in aggregation. The following agonists were used to induce aggregation in samples: 10 μg/ml collagen (Helena Biosciences, Helena-biosciences.com), 10U/ml thrombin (Helena Biosciences, Helena-biosciences.com), 10 μg/ml arachidonic acid, and 10 μM TRAP-6. 225 μl of the samples were added to cuvettes by reverse pipetting and inserted in the channels. Cuvettes were transferred from the warming wells to the testing wells. The test was started and 25 μl of each agonist was added to the appropriate cuvettes when the timer for the channel reached 8:00 minutes. HMTA was added in place of the agonist to the first channel in each module. Once measurements were completed for each agonist, the samples were transferred to a microcentrifuge tube and AcT count was taken. […]

[1] = test system: fibrinogen, GPIIIa (CD61), complexed GPIIb/IIIa (CD41); conditions: 5 mM EDTA
Description: EDTA (Sigma Aldrich, sigmaaldrich.com) was added to one of the duplicates to achieve a 5 mM concentration. […] Stain volumes were as follows: Unstained: 10 μl of sample and 20 μl HMTA, 9F9: 10 μl of sample, 5 μl antibody, and 15 μl HMTA, CD41: 5 μl of sample and 12 μl antibody, and CD61: 10 μl of sample, 10 μl antibody, and 10 μl HMTA. Stained samples were incubated for 20 minutes for 9F9, CD61, and vWF and 5 minutes for CD41. 470 μl of the samples were added to 9F9 and CD61 stains and 233 μl of the samples were added to CD41 stains. 100 μl of each sample was transferred to wells in a 96-well plate. All samples were measured using the Quanteon flow cytometer.

[2] = test system: FPH aggregation (GpIIbIIIa); conditions: 5 mM MgCl2, FPH 250 k/μL, tirofiban present
Description: A master mix of FPH or APU was prepared by combining cells dosed at 250 k/μL with HMTA to arrive at enough volume to fill 225 μl of sample into 8 cuvettes, plus extra buffer volume if necessary. 225 μl of master mix was transferred to cuvettes as specified along with a magnetic stir bar in each cuvette. […] The groups tested were as follows. (+) indicates the presence while (−) indicates the absence of the specified reagent: • 0.32 mM DMSO−/5 mM Mg−/1 mM Tiro− (negative control) • 0.32 mM DMSO+/5 mM Mg−/1 mM Tiro− (negative control) • 0.32 mM DMSO−/5 mM Mg+/1 mM Tiro− (positive control) • 0.32 mM DMSO+/5 mM Mg+/1 mM Tiro− (positive control) • 0.32 mM DMSO+/5 mM Mg−/1 mM Tiro− (#of samples=2) • 0.32 mM DMSO+/5 mM Mg−/1 mM Tiro− (#of samples=2)

[3] = test system: FPH aggregation (surface fibrinogen); test: MgCl2 aggregation dose response after plasmin treatment of FPH; assay type: cell-based, human; conditions: 0, 2, 5, 10 mM MgCl2, plasmin 1 hour
Description: Both master mixes were incubated at room temperature with agitation for 1 hour. […] Magnetic stir bars were placed in all the cuvettes. […] Each concentration of MgCl2 to be tested was prepared in duplicate. […] Plasmin causes the breakdown of fibrinogen.

[4] = target: T3, fibrinogen on the surface of FPH (Homo sapiens, UniProt P02671+P02675+P02679); test: Surface marker detection of washed FPH at different plasmin concentrations; assay type: cell-based; conditions: 0, 1.46, 2.92, 14.6, 29.2 nkat/ml plasmin, 1 hour
T3 construct: endogenous in cells; host or cells: washed FPH (freeze-dried human platelet derivatives)
T3 sequence (P02671 20-629 limits assumed): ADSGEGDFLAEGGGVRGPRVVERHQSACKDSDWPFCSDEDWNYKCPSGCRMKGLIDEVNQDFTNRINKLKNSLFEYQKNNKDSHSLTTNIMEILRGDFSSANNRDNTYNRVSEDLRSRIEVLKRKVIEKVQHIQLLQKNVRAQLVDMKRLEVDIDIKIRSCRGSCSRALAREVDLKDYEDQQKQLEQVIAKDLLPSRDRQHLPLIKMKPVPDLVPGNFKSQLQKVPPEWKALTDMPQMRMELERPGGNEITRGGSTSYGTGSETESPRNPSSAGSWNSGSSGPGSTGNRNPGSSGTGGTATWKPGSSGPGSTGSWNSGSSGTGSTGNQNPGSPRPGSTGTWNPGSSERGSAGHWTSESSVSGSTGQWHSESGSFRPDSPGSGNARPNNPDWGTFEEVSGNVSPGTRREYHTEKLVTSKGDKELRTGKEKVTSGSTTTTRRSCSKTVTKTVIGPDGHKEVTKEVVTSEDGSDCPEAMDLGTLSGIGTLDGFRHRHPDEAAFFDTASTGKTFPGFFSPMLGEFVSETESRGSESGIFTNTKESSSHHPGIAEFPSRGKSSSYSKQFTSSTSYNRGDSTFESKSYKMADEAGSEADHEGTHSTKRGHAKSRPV
T3 sequence (P02675 31-491): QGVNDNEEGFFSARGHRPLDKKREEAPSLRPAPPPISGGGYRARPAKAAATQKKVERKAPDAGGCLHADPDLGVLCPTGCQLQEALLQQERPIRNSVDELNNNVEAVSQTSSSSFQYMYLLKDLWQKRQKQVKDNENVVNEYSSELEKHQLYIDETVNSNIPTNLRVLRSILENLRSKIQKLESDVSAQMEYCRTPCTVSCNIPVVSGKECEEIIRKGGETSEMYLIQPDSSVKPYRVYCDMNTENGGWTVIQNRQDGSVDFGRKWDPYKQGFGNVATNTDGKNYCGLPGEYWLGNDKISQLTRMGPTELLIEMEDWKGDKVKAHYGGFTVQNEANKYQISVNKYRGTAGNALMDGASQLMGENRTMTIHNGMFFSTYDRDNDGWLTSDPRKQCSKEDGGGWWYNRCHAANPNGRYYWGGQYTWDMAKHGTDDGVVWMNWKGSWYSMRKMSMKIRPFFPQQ
T3 sequence (P02679 27-453): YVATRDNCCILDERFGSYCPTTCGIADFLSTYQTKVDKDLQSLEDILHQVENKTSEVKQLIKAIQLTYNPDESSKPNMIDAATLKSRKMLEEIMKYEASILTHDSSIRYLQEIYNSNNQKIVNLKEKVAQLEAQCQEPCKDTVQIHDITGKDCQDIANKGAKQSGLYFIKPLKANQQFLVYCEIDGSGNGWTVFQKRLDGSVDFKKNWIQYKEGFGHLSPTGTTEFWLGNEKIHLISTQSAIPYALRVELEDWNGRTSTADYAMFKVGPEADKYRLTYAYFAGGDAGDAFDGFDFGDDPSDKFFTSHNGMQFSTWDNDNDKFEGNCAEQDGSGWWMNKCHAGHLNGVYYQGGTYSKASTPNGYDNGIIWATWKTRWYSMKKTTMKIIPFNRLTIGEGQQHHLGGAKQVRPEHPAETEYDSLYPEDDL

[5] = test system: aggregation of washed FPH with washed platelets; test: Mixed aggregation of washed FPH with washed platelets with and without plasmin; assay type: cell-based, human; conditions: plasmin-treated washed FPH mixed with WPS
Description: This was repeated for optimal concentration of plasmin added based on flow results. To initiate spontaneous aggregation between the washed platelets and washed FPH the following steps were performed for the mixed samples. Stir bars were added to cuvettes, 225 μl of sample was added to the cuvettes by reverse pipetting and inserted into channels. The cuvettes were transferred from the warming wells to the testing wells. The run was started for each channel with 10 seconds in between. 25 μl of HMTA was added to all cuvettes once the timer for the channel reached 8:00 minutes. After measurements were completed, each sample was transferred to a microcentrifuge tube and AcT counts were taken.

[6] = washed FPH and washed platelets

Arg-Gly-Asp-Ser (RGDS; printed: Arg-Gly-Asp-Ser) [GpIIbIIa receptor antagonist RGDS peptide]
effect on mixed aggregation of washed FPH and washed platelets (GpIIbIIa receptor): inhibited aggregation
fold lower platelet counts in untreated mixed sample in comparison to the treated mixed sample (GpIIbIIa receptor): > 2 fold

O=C(NC[C@H]1CN(c2ccc(N3CCOCC3=O)cc2)C(=O)O1)c1ccc(Cl)s1 [Rivaroxaban]
thrombin generation of FPH (FXa): decreasing thrombin generation
maximum peak time of thrombin generation of FPH (FXa; 1:64 dilution): increasing maximum peak time

O=C(O)CN(CCN(CC(=O)O)CC(=O)O)CC(=O)O [EDTA]
effect on aggregation between washed FPH and washed platelets (washed platelets (WPS)): prevents aggregation
Bound fibrinogen with addition of EDTA ([1]; washed FPH): decreases slightly
CD61 (GpIIIa) signal with addition of EDTA [1, 6]: decreased slightly
drop in the GpIIbIIIa complex (CD41) with addition of EDTA [1, 6]: more than half

CCCCS(=O)(=O)N[C@@H](Cc1ccc(OCCCCC2CCNCC2)cc1)C(=O)O [tirofiban]
effect on divalent cation induced aggregation of FPH [2]: abrogated

B1: plasmin: Plasmin causes the breakdown of fibrinogen (protein, UniProt P00747 20-580; P00747 581-810, looked up)
Plasmin heavy chain A: EPLDDYVNTQGASLFSVTKKQLGAGSIEECAAKCEEDEEFTCRAFQYHSKEQQCVIMAENRKSSIIIRMRDVVLFEKKVYLSECKTGNGKNYRGTMSKTKNGITCQKWSSTSPHRPRFSPATHPSEGLEENYCRNPDNDPQGPWCYTTDPEKRYDYCDILECEEECMHCSGENYDGKISKTMSGLECQAWDSQSPHAHGYIPSKFPNKNLKKNYCRNPDRELRPWCFTTDPNKRWELCDIPRCTTPPPSSGPTYQCLKGTGENYRGNVAVTVSGHTCQHWSAQTPHTHNRTPENFPCKNLDENYCRNPDGKRAPWCHTTNSQVRWEYCKIPSCDSSPVSTEQLAPTAPPELTPVVQDCYHGDGQSYRGTSSTTTTGKKCQSWSSMTPHRHQKTPENYPNAGLTMNYCRNPDADKGPWCFTTDPSVRWEYCNLKKCSGTEASVVAPPPVVLLPDVETPSEEDCMFGNGKGYRGKRATTVTGTPCQDWAAQEPHRHSIFTPETNPRAGLEKNYCRNPDGDVGGPWCYTTNPRKLYDYCDVPQCAAPSFDCGKPQVEPKKCPGR
Plasmin light chain B: VVGGCVAHPHSWPWQVSLRTRFGMHFCGGTLISPEWVLTAAHCLEKSPRPSSYKVILGAHQEVNLEPHVQEIEVSRLFLEPTRKDIALLKLSSPAVITDKVIPACLPSPNYVVADRTECFITGWGETQGTFGAGLLKEAQLPVIENKVCNRYEFLNGRVQSTELCAGHLAGGTDSCQGDSGGPLVCFEKDKYILQGVTSWGLGCARPNKPGVYVRVSRFVTWIEGVMRNN
modifications: Plasmin
notes: Plasmin causes the breakdown of fibrinogen
FPH aggregation response to MgCl2 after plasmin treatment [3]: no dose dependent response
effect on fibrinogen on the surface of FPH [4]: degrades fibrinogen on the surface of FPH
effect on aggregation of washed FPH with washed platelets [5]: inhibits the aggregation
